From ChEMBL document CHEMBL5620375, “Tetrahydrobenzo[h]quinoline derivatives as a novel chemotype for dual antileishmanial-antimalarial activity graced with antitubercular activity: Design, synthesis and biological evaluation” (Eur J Med Chem, 2023)
≈ marks a conversion by molar mass, not a printed value.

The compounds below were run on Mycobacterium tuberculosis (assay: Antitubercular activity against multidrug-resistant Mycobacterium tuberculosis ATCC 35822 assessed as inhibition of bacterial growth by microplate alamar blue assay).
Type: functional

| SMILES | MIC [µM] |
| --- | --- |
| N#Cc1c(O)nc2c(c1-c1cccc([N+](=O)[O-])c1)CCc1ccccc1-2 | 22.8 (≈ 7.82 µg/mL) |
| COc1ccccc1-c1c2c([nH]c(=O)c1C#N)-c1ccccc1CC2 | 11.9 (≈ 3.9 µg/mL) |
| COc1ccc(OC)c(-c2c3c([nH]c(=O)c2C#N)-c2ccccc2CC3)c1 | 21.8 (≈ 7.82 µg/mL) |
| COc1ccc(-c2c3c([nH]c(=O)c2C#N)-c2ccccc2CC3)cc1O | 45.4 (≈ 15.6 µg/mL) |
| N#Cc1c(-c2ccc(Cl)cc2Cl)c2c([nH]c1=O)-c1ccccc1CC2 | 85.4 (≈ 31.4 µg/mL) |
